Experimental data: PubChem BioAssay AID248 (DTP/NCI, 2004)
“And” between values parts separate entries of the source, which are not always exact repeats. Equal entries are not always repeated. Toxic doses and inconclusive results are not listed. Cut-off read from the data, not from the text of the source: active = T/C of 150% or more; inactive = T/C below 125%.

System: L1210 leukemia ip in BDF1 mice, survival T/C
Assay: NCI In Vivo Anticancer Drug Screen. Data for tumor model L1210 Leukemia (intraperitoneal) in B6D2F1 (BDF1) mice
Conditions: higher = longer survival
How it was run: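 Ratio derived from survival: compound-dosed mice over vehicle-dosed mice, all bearing a transplantable tumor.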

[1] = endpoint: mean survival time, dose: 12.5 mg/kg/injection, schedule: Q01DX009 (ip), vehicle: saline
[2] = endpoint: mean survival time, dose: 25.0 mg/kg/injection, schedule: Q01DX009 (ip), vehicle: saline with Tween-80
[3] = endpoint: mean survival time, dose: 25.0 mg/kg/injection, schedule: Q01DX009 (ip), vehicle: saline
[4] = endpoint: mean survival time, dose: 50.0 mg/kg/injection, schedule: Q01DX009 (ip), vehicle: saline
[5] = endpoint: mean survival time, dose: 100.0 mg/kg/injection, schedule: Q01DX001 (ip), vehicle: saline

Measured: T/C

CS(=O)(=O)OCCCCOS(C)(=O)=O
inactive: endpoint: mean survival time, dose: 1.5 mg/kg/injection, schedule: Q04DX002 (ip), vehicle: saline with Tween-80 95 % of control and 106 % of control | endpoint: mean survival time, dose: 1.7 mg/kg/injection, schedule: Q01DX009 (ip), vehicle: saline with Tween-80 96 % of control and 108 % of control | endpoint: mean survival time, dose: 2.9 mg/kg/injection, schedule: Q04DX002 (ip), vehicle: saline with Tween-80 100 % of control and 107 % of control | endpoint: mean survival time, dose: 3.3 mg/kg/injection, schedule: Q01DX009 (ip), vehicle: saline with Tween-80 96 % of control and 105 % of control | endpoint: mean survival time, dose: 3.75 mg/kg/injection, schedule: Q01DX001 (ip), vehicle: carboxymethylcellulose (CMC) 103 % of control | endpoint: mean survival time, dose: 5.8 mg/kg/injection, schedule: Q04DX002 (ip), vehicle: saline with Tween-80 98 % of control and 102 % of control | endpoint: mean survival time, dose: 6.25 mg/kg/injection, schedule: Q01DX010 (ip), vehicle: saline 108 % of control and 118 % of control | endpoint: mean survival time, dose: 6.5 mg/kg/injection, schedule: Q01DX009 (ip), vehicle: saline with Tween-80 99 % of control and 105 % of control | endpoint: mean survival time, dose: 7.5 mg/kg/injection, schedule: Q01DX001 (ip), vehicle: carboxymethylcellulose (CMC) 112 % of control | endpoint: mean survival time, dose: 9.5 mg/kg/injection, schedule: Q02DX010 (ip), vehicle: carboxymethylcellulose (CMC) 111 % of control | endpoint: mean survival time, dose: 10.0 mg/kg/injection, schedule: Q01DX Z (ip), vehicle: carboxymethylcellulose (CMC) 104 % of control | endpoint: mean survival time, dose: 10.0 mg/kg/injection, schedule: Q02DX010 (ip), vehicle: carboxymethylcellulose (CMC) 97 % of control | endpoint: mean survival time, dose: 10.0 mg/kg/injection, schedule: Q02DX010 (ip), vehicle: other 112 % of control | endpoint: mean survival time, dose: 11.5 mg/kg/injection, schedule: Q04DX002 (ip), vehicle: saline with Tween-80 98 % of control and 109 % of control | [1] 97 % of control and 104 % of control and 88 % of control | endpoint: mean survival time, dose: 12.5 mg/kg/injection, schedule: Q01DX010 (ip), vehicle: saline 116 % of control and 118 % of control | endpoint: mean survival time, dose: 12.5 mg/kg/injection, schedule: Q01DX Z (ip), vehicle: carboxymethylcellulose (CMC) 93 % of control and 102 % of control | endpoint: mean survival time, dose: 13.0 mg/kg/injection, schedule: Q01DX009 (ip), vehicle: saline with Tween-80 99 % of control and 101 % of control | endpoint: mean survival time, dose: 14.0 mg/kg/injection, schedule: Q02DX010 (ip), vehicle: carboxymethylcellulose (CMC) 96 % of control | endpoint: mean survival time, dose: 15.0 mg/kg/injection, schedule: Q01DX001 (ip), vehicle: carboxymethylcellulose (CMC) 101 % of control | endpoint: mean survival time, dose: 15.0 mg/kg/injection, schedule: Q02DX010 (ip), vehicle: carboxymethylcellulose (CMC) 98 % of control | endpoint: mean survival time, dose: 15.0 mg/kg/injection, schedule: Q02DX010 (ip), vehicle: other 104 % of control | endpoint: mean survival time, dose: 20.0 mg/kg/injection, schedule: Q01DX Z (ip), vehicle: carboxymethylcellulose (CMC) 103 % of control | endpoint: mean survival time, dose: 22.0 mg/kg/injection, schedule: Q02DX010 (ip), vehicle: carboxymethylcellulose (CMC) 103 % of control and 113 % of control | endpoint: mean survival time, dose: 22.0 mg/kg/injection, schedule: Q02DX010 (ip), vehicle: other 106 % of control | endpoint: mean survival time, dose: 23.0 mg/kg/injection, schedule: Q04DX002 (ip), vehicle: saline with Tween-80 98 % of control and 100 % of control | [2] 101 % of control and 115 % of control | [3] 96 % of control (2×) and 111 % of control | endpoint: mean survival time, dose: 25.0 mg/kg/injection, schedule: Q01DX Z (ip), vehicle: carboxymethylcellulose (CMC) 102 % of control and 105 % of control | endpoint: mean survival time, dose: 27.0 mg/kg/injection, schedule: Q01DX001 (ip), vehicle: carboxymethylcellulose (CMC) 96 % of control | endpoint: mean survival time, dose: 30.0 mg/kg/injection, schedule: Q01DX001 (ip), vehicle: carboxymethylcellulose (CMC) 106 % of control | endpoint: mean survival time, dose: 33.0 mg/kg/injection, schedule: Q02DX010 (ip), vehicle: other 112 % of control | endpoint: mean survival time, dose: 40.0 mg/kg/injection, schedule: Q01DX Z (ip), vehicle: carboxymethylcellulose (CMC) 110 % of control | endpoint: mean survival time, dose: 40.0 mg/kg/injection, schedule: Q01DX Z (oral), vehicle: saline 94 % of control | endpoint: mean survival time, dose: 41.0 mg/kg/injection, schedule: Q01DX001 (ip), vehicle: carboxymethylcellulose (CMC) 103 % of control | endpoint: mean survival time, dose: 46.0 mg/kg/injection, schedule: Q04DX002 (ip), vehicle: saline with Tween-80 104 % of control and 107 % of control | endpoint: mean survival time, dose: 49.0 mg/kg/injection, schedule: Q01DX009 (ip), vehicle: saline with Tween-80 103 % of control and 121 % of control | [4] 98 % of control and 109 % of control and 120 % of control | endpoint: mean survival time, dose: 50.0 mg/kg/injection, schedule: Q01DX010 (ip), vehicle: saline 111 % of control and 88 % of control | endpoint: mean survival time, dose: 50.0 mg/kg/injection, schedule: Q01DX Z (ip), vehicle: carboxymethylcellulose (CMC) 103 % of control | endpoint: mean survival time, dose: 50.0 mg/kg/injection, schedule: Q02DX010 (ip), vehicle: carboxymethylcellulose (CMC) 101 % of control and 107 % of control | endpoint: mean survival time, dose: 50.0 mg/kg/injection, schedule: Q02DX010 (ip), vehicle: other 115 % of control | endpoint: mean survival time, dose: 60.0 mg/kg/injection, schedule: Q01DX001 (ip), vehicle: carboxymethylcellulose (CMC) 110 % of control | endpoint: mean survival time, dose: 61.0 mg/kg/injection, schedule: Q01DX001 (ip), vehicle: carboxymethylcellulose (CMC) 98 % of control | endpoint: mean survival time, dose: 75.0 mg/kg/injection, schedule: Q02DX010 (ip), vehicle: carboxymethylcellulose (CMC) 89 % of control | endpoint: mean survival time, dose: 80.0 mg/kg/injection, schedule: Q01DX Z (oral), vehicle: saline 105 % of control | endpoint: mean survival time, dose: 100.0 mg/kg/injection, schedule: Q01DX009 (ip), vehicle: saline 88 % of control | endpoint: mean survival time, dose: 100.0 mg/kg/injection, schedule: Q01DX Z (ip), vehicle: carboxymethylcellulose (CMC) 93 % of control | endpoint: mean survival time, dose: 100.0 mg/kg/injection, schedule: Q04DX003 (ip), vehicle: saline with Tween-80 101 % of control | endpoint: mean survival time, dose: 120.0 mg/kg/injection, schedule: Q01DX001 (ip), vehicle: carboxymethylcellulose (CMC) 100 % of control | endpoint: mean survival time, dose: 160.0 mg/kg/injection, schedule: Q01DX Z (oral), vehicle: saline 108 % of control | endpoint: mean survival time, dose: 200.0 mg/kg/injection, schedule: Q04DX003 (ip), vehicle: saline with Tween-80 104 % of control | endpoint: mean survival time, dose: 400.0 mg/kg/injection, schedule: Q04DX003 (ip), vehicle: saline with Tween-80 104 % of control | endpoint: median survival time, dose: 10.0 mg/kg/injection, schedule: Q01DX009 (ip), vehicle: saline 105 % of control | endpoint: median survival time, dose: 12.5 mg/kg/injection, schedule: Q01DX009 (ip), vehicle: saline 95 % of control and 112 % of control | endpoint: median survival time, dose: 20.0 mg/kg/injection, schedule: Q01DX009 (ip), vehicle: saline 100 % of control | endpoint: median survival time, dose: 25.0 mg/kg/injection, schedule: Q01DX009 (ip), vehicle: saline 110 % of control and 112 % of control | endpoint: median survival time, dose: 40.0 mg/kg/injection, schedule: Q01DX009 (ip), vehicle: saline 100 % of control | endpoint: median survival time, dose: 50.0 mg/kg/injection, schedule: Q01DX009 (ip), vehicle: saline 100 % of control and 112 % of control | endpoint: median survival time, dose: 80.0 mg/kg/injection, schedule: Q01DX009 (ip), vehicle: saline 110 % of control | endpoint: median survival time, dose: 100.0 mg/kg/injection, schedule: Q01DX009 (ip), vehicle: saline 100 % of control | endpoint: median survival time, dose: 160.0 mg/kg/injection, schedule: Q01DX009 (ip), vehicle: saline 100 % of control

CCCCC(CC)C1NC(=O)N(SC(Cl)(Cl)Cl)C1=O (stereo unspecified)
inactive: endpoint: mean survival time, dose: 12.5 mg/kg/injection, schedule: Q01DX009 (ip), vehicle: saline with Tween-80 103 % of control | [2] 92 % of control | endpoint: mean survival time, dose: 50.0 mg/kg/injection, schedule: Q01DX009 (ip), vehicle: saline with Tween-80 101 % of control and 106 % of control

C[N+]1(C)CCC2=CC3C=CC2C1C=C3 (stereo unspecified)
inactive: [1] 95 % of control | [3] 93 % of control | [4] 90 % of control

COc1ccc(C(C)=O)cc1OCc1ccccc1
inactive: endpoint: mean survival time, dose: 100.0 mg/kg/injection, schedule: Q01DX009 (ip), vehicle: water 112 % of control | endpoint: mean survival time, dose: 100.0 mg/kg/injection, schedule: Q04DX003 (ip), vehicle: water 98 % of control | endpoint: mean survival time, dose: 200.0 mg/kg/injection, schedule: Q01DX009 (ip), vehicle: water 108 % of control | endpoint: mean survival time, dose: 200.0 mg/kg/injection, schedule: Q04DX003 (ip), vehicle: water 100 % of control | endpoint: mean survival time, dose: 400.0 mg/kg/injection, schedule: Q01DX009 (ip), vehicle: water 103 % of control | endpoint: mean survival time, dose: 400.0 mg/kg/injection, schedule: Q04DX003 (ip), vehicle: water 93 % of control

Nc1cncc(Br)c1NCCc1ccccc1
inactive: endpoint: mean survival time, dose: 100.0 mg/kg/injection, schedule: Q01DX001 (ip), vehicle: carboxymethylcellulose (CMC) 103 % of control | endpoint: mean survival time, dose: 200.0 mg/kg/injection, schedule: Q01DX001 (ip), vehicle: carboxymethylcellulose (CMC) 97 % of control | endpoint: mean survival time, dose: 400.0 mg/kg/injection, schedule: Q01DX001 (ip), vehicle: carboxymethylcellulose (CMC) 101 % of control

COc1ccc(NC(=O)OCCN(CCOC(=O)Nc2ccc(OC)cc2)c2cccc(C)c2)cc1
inactive: [5] 100 % of control | endpoint: mean survival time, dose: 200.0 mg/kg/injection, schedule: Q01DX001 (ip), vehicle: saline 90 % of control | endpoint: mean survival time, dose: 400.0 mg/kg/injection, schedule: Q01DX001 (ip), vehicle: saline 90 % of control

CSc1nn(C)c[n+]1-c1ccccc1
inactive: [5] 105 % of control
